Test [1] can be described thus: Example 3: OGTT after 3 days of oral treatment in DIO rats. Particulars: doses of 0.5, 1 and 2 mg/kg p.o. The class given is in vivo, rat. How it is done:
Drug administration were given by per oral (p.o.) gavage b.i.d. during the study period and as single dose in the morning prior to start of OGTT.
Animals were given 2 g/kg single dose dissolved in milliQ H20.
Following the initial (1st) OGTT, animals were randomized into treatment groups based on FBG and BW. Animals were pre-treated 3 days (b.i.d.) prior to 2nd OGTT. The study was performed in an x-over design with each animal being its own control.
OGTT Following Overnight Fasting (16 h):
Blood sampling and glycemia were measured by heated tail venous puncture. Whole blood glucose levels were determined with an ACCU-CHEK® Avia blood glucose meter (Roche Diagnostics, Rotkreuz, Switzerland). Blood (approx 300 μl) is collected in 1 ml MiniCollect K3EDTA plasma-tube (Greiner-Bio-One GmbH, Frickenhausen, Germany), inverted, and stored on ice. Tubes are centrifuged 3000×g (5000 rpm in table centrifuge) for 10 min at 4° C. and plasma obtained. Plasma samples are stored at −20° C. until analysis. A total of ˜2.5 ml blood is obtained during OGTT (˜0.3% of body weight).
Statistical analysis was performed by one-way ANOVA followed by the Dunnett's post hoc test for multiple comparison. Student's t-test was performed to compare two paired group. All analysis was performed using GRAPHPAD PRISM software (GraphPad Prism, San Diego, Calif. U.S.A). Incremental area under curve (iAUC) during OGTT was calculated by the trapezoidal method. A value of P<0.05 was considered to be significant. All data are presented as mean±standard error of the mean (SEM).
FIG. 10A, FIG. 10B, FIG. 10C, FIG. 10D, FIG. 10E, and FIG. 10F show the effect of oral sCT versus oral UGPs on glucose tolerance during OGTT in DIO rats. Three different doses of oral sCT/UGP284/UGP298/UGP302 containing 0.5, 1 and 2 mg/kg compound were applied by gavage twice daily to 4 groups of rats for 3 days prior to OGTT. The experimental set-up was a cross-over design. * P<0.05, ** P<0.01, *** P<0.001 vs oral vehicle. Results are presented as means±SEM.

For test [2], the target named is T1, T47D cell calcitonin receptors (Homo sapiens, UniProt P30988).
T1 construct: This cell line is known to have the following receptors: calcitonin, androgen, progesterone; endogenous in cells; host or cells: T47D (human breast epithelial cell line)
T1 sequence (P30988 25-474): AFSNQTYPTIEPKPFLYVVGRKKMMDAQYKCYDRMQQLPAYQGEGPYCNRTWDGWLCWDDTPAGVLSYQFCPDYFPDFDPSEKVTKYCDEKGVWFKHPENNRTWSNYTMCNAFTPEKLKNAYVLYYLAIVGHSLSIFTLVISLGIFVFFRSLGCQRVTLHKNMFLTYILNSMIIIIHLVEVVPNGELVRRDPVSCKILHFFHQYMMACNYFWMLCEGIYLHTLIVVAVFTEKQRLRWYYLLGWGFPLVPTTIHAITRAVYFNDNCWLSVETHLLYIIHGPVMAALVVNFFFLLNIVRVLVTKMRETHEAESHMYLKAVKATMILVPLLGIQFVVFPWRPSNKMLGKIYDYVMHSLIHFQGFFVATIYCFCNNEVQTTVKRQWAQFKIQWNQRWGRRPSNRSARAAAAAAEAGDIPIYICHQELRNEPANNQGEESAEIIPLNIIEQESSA
The test can be described thus: Example 4: T47D bioassay, binding of sCT analogs to T47D cell calcitonin receptors (cAMP). Type of test: cell-based. Particulars: T47D cells; sCT set at 100% at 1000 pg/mL; various concentrations. Here is the method:
sCT analogs at various concentrations were tested in a T47D (human breast epithelial cell line) bioassay. This cell line is known to have the following receptors: calcitonin, androgen, progesterone, glucocrticoid, prolactin and estrogen. The results are presented in FIG. 11 as % cAMP binding relative to sCT which was set at 100% cAMP binding at a concentration of 1000 pg/mL.

The next test has as its system CTX-I. The test can be described thus: Example 6: serum CTX-I (RatLaps ELISA), bone resorption in DIO rats. The class given is in vivo, rat. Particulars: 1 mg/kg p.o. with 150 mg/kg 5-CNAC, 2 hours after treatment, vs sCT. Here is the method: (§1) The effect of sCT/calcitonin mimetic on bone and cartilage loss was studied in DIO rats. The animals were dosed as described in Table 6 below, and 2 hours after treatment blood sampling was done by heated tail venous puncture.
(§2) Serum CTX-I levels, as an indication of bone resorption, were measured using the RatLaps™ ELISA, and serum CTX-II levels, as an indication of cartilage degradation, were measured using the Serum PC Cartilaps™ ELISA.

The next test has as its system CTX-II. As to the kind of experiment: Example 6: serum CTX-II (Serum PC Cartilaps ELISA), cartilage degradation in DIO rats. The class given is in vivo, rat. Particulars: 1 mg/kg p.o. with 150 mg/kg 5-CNAC, 2 hours after treatment, vs sCT. How it is done:
as §1, §2

Test [3] can be described thus: Example 7: combination with metformin in Zucker Diabetic Fatty rats, FPG, PPG, HbA1c. Type of test: in vivo, rat. Particulars: ZDF rats; 8 weeks once daily; metformin 400 mg/kg/day oral, UGP302 5 μg/kg/day s.c. Here is the method:
(§3) To assess the potential of UGP302 (SEQ ID NO: 15) in combination with metformin, Zucker Diabetic Fatty rats were used. At the age of 6 weeks 40 rats were randomized into four groups according to HbA1c, FPG and BW. The groups were: Control (Vehicle), Metformin 400 mg/kg/day, UGP302 5 μg/kg/day and the combination of the two molecules in the stated respective amounts. The treatments were given once daily, and metformin was dosed orally, while UGP302 was given subcutaneously, and the animals were treated for 8 weeks. Fasting blood glucose (FPG) and non-fasted blood glucose (PPG) were monitored biweekly, while HbA1c was measured at termination.

The nature of test [4]: Example 7: oral glucose tolerance test in Zucker Diabetic Fatty rats. Particulars: ZDF rats; metformin 400 mg/kg/day oral, UGP302 5 μg/kg/day s.c. The class given is in vivo, rat. Here is the method: as §3
(§4) To further assess the effect of both single doses of each molecule and the combination of these at those same doses, the rats underwent an oral glucose tolerance test (OGTT, FIGS. 23A-23B) and an insulin tolerance test (ITT, FIGS. 24A-24B).

Test [5] in a line: Example 7: insulin tolerance test in Zucker Diabetic Fatty rats. Type of test: in vivo, rat. Particulars: ZDF rats; metformin 400 mg/kg/day oral, UGP302 5 μg/kg/day s.c. Here is the method:
as §3, §4

Consider “Ac-CSNLSTCVLGKLSQELHKLQTYPRTDVGANAP-NH2 (Ac-CSNLSTCVLGKLSQELHKLQTYPRTDVGANAP-NH2; ends and bridges not checked) [UGP302, calcitonin mimetic]”, for which the “glucose tolerance during OGTT” value in test [1] is on record as “improvement in glucose tolerance”. For the same substance, the “% cAMP binding relative to sCT” value in test [2] is given as “highest level of binding of all the tested compounds”. Besides, the “bone resorption (serum CTX-I levels)” value with CTX-I is “stronger effect in reduction”. For the same substance, in the test on CTX-II, the “cartilage degradation (serum CTX-II levels)” value is “stronger effect in reduction”. For the same substance, in test [3], the “fasting blood glucose (FPG)” value was “pronounced reduction throughout the study” and the “non-fasted blood glucose (PPG)” value is on record as “pronounced reduction throughout the study”. In test [4], the “glucose tolerance (OGTT)” value was “individually improve”. In addition, the “insulin tolerance (ITT)” value in test [5] was “individually improve”.
